Data on 29 molecules can be found in patent US10584115B2, “Substituted pyridine and pyrazine BMI-1 inhibitors” (PTC Therapeutics, Inc., priority 2013, dated 2020).

As usually defined, the EC50 is the concentration needed to bring the measured effect to its halfway point. The term melting point denotes the temperature of the solid-liquid transition.

Series [1] concerns Bmi-1 protein. Nature of the series: Sandwich ELISA Assay (Bmi-1 protein level in HT-1080 cells after compound treatment). It is filed as cell-based. Put shortly: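 HT-1080 cells exposed to compounds for 40–48 h at 37 °C (0.5% DMSO final), then lysed. Bmi-1 in lysates measured by sandwich ELISA (mouse monoclonal capture, rabbit anti-Bmi-1 detection, HRP anti-rabbit, TMB), read at OD450 with OD570 reference against a recombinant Bmi-1 standard curve (0–8000 pg/mL).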

The mark [2] stands for this setting: Table 1, Bmi-1 sandwich ELISA, read-out: ELISA EC50 value for Bmi-1 protein.
Where [3] appears, read: read-out: ELISA EC50 value for Bmi-1 protein, Table 1, Bmi-1 sandwich ELISA.

The structures appear in SMILES notation. Like-named read-outs stand apart in the source and are kept apart here.

For the molecule `Cc1nc2ccc(F)cc2n1-c1cncc(Nc2ccc(OC(F)F)cc2)n1` [compound 229, N-[4-(difluoromethoxy)phenyl]-6-(6-fluoro-2-methyl-1H-benzimidazol-1-yl)pyrazin-2-amine], the melting point is 200 to 202 °C. Further, the EC50 in series [1] (setting [2]) was in the range of 1 to 10 nM.

Molecule `N#Cc1cc(Nc2ccc(C(F)(F)F)c(F)c2)nc(-c2c(C3CC3)nc3ccc(F)cn23)c1` [compound 347, 2-(2-cyclopropyl-6-fluoroimidazo[1,2-a]pyridin-3-yl)-6-{[3-fluoro-4-(trifluoromethyl)phenyl]amino}pyridine-4-carbonitrile] showed a melting point of 256 to 258 °C. The EC50 in series [1] (setting [2]) lay in the range of 10 to 100 nM.

As for `Cc1noc(C)c1-c1cncc(Nc2ccc(C(F)(F)F)cc2)n1` [compound 127, 6-(3,5-dimethyl-1,2-oxazol-4-yl)-N-[4-(trifluoromethyl)phenyl]pyrazin-2-amine], the melting point fell in the range of 208 to 210 °C. For the same molecule, the EC50 in series [1] (setting [3]) was 10 to 100 nM.

As for `Cc1cn2c(-c3cncc(Nc4ccc(C(F)(F)F)cc4)n3)c(C)nc2c(C)n1` [compound 488, N-[4-(trifluoromethyl)phenyl]-6-(2,6,8-trimethylimidazo-[1,2-a]pyrazin-3-yl)pyrazin2-amine], the melting point was in the range of 102 to 105 °C. Also, the EC50 in series [1] (setting [2]) was 10 to 100 nM.

Turning to `Cc1c(-c2cncc(Nc3ccc(OC(F)(F)F)cc3)n2)c(C(F)(F)F)nn1C` [compound 281, 6-[1,5-dimethyl-3-(trifluoromethyl)-1H-pyrazol-4-yl]-N-[4-(trifluoromethoxy)phenyl]pyrazin-2-amine], the melting point lay in the range of 157 to 158 °C. Moreover, the EC50 in series [1] (setting [2]) was in the range of 100 to 3000 nM.

For `CS(=O)(=O)c1ccc(Nc2cncc(-c3c(C(F)(F)F)nc4ccccn34)n2)cc1` [compound 68, N-[4-(methylsulfonyl)phenyl]-6-[2-(trifluoromethyl)imidazo[1,2-a]pyridin-3-yl]pyrazin-2-amine], the melting point lay within 256 to 258 °C. Also, the EC50 in series [1] (setting [3]) was in the range of 100 to 3000 nM.

`FC(F)(F)c1ccc(Nc2cncc(-c3c(C4CCC4)nc4ccccn34)n2)cc1` [compound 131, 6-(2-cyclobutylimidazo[1,2-a]pyridin-3-yl)-N-[4-(trifluoromethyl)phenyl]pyrazin-2-amine] gave a melting point of 218 to 219 °C. Also, the EC50 in series [1] (setting [2]) was 1 to 10 nM.

As for `COc1ccc(Nc2cc(C#N)cc(-c3c(C)nc4ccc(F)cn34)n2)cc1` [compound 649, 2-(6-fluoro-2-methylimidazo[1,2-a]pyridin-3-yl)-6-[(4-methoxyphenyl)amino}pyridine-4-carbonitrile], the melting point was 190 to 192 °C. Besides, in series [1] (setting [2]), the EC50 was in the range of 1 to 10 nM.

Molecule `CCc1nc2ccc(F)cc2n1-c1cncc(Nc2cccc(OC)c2)n1` [compound 624, 6-(2-ethyl-6-fluoro-1H-benzimidazol-1-yl)-N-(3-methoxyphenyl)pyrazin-2-amine] showed a melting point of 179 to 181 °C. The EC50 in series [1] (setting [2]) was 10 to 100 nM.

Take `N#Cc1cc(Nc2ccc(OC(F)(F)F)cc2)nc(-c2c(C3CC3)nc3ccc(F)cn23)c1` [compound 350, 2-(2-cyclopropyl-6-fluoroimidazo[1,2-a]pyridin-3-yl)-6-{[4-(trifluoromethoxy)phenyl]amino}pyridine-4-carbonitrile]: the melting point lay within 194 to 195 °C. Further, in series [1] (setting [2]), the EC50 lay within 10 to 100 nM.

`Cc1nc2cc(F)ccc2n1-c1cncc(Nc2ccc(OC(F)F)cc2)n1` [compound 205, N-[4-(difluoromethoxy)phenyl]-6-(5-fluoro-2-methyl-1H-benzimidazol-1-yl)pyrazin-2-amine] showed a melting point of 239 to 241 °C. Besides, the EC50 in series [1] (setting [2]) lay in the range of 10 to 100 nM.

As for `Cc1nc2ccc(F)cn2c1-c1cc(N)cc(Nc2ccc(C(F)(F)F)cc2)n1` [compound 316, 6-(6-fluoro-2-methylimidazo[1,2-a]pyridin-3-yl)-N^2-[4-(trifluoromethyl)phenyl]pyridine-2,4-diamine], the melting point fell in the range of 161 to 163 °C. In addition, the EC50 in series [1] (setting [3]) was 1 to 10 nM.

`Cc1nc2c(F)cc(F)cn2c1-c1cc(C#N)cc(Nc2ccc(OC(F)F)cc2)n1` [compound 442, 2-{[4-(difluoromethoxy)phenyl]amino}-6-(6,8-difluoro-2-methylimidazo[1,2-a]pyridin-3-yl)pyridine-4-carbonitrile]: the melting point is 236 to 238 °C. Also, in series [1] (setting [2]), the EC50 lay within 1 to 10 nM.

Molecule `Cc1nc2ccc(F)cn2c1-c1cncc(Nc2ccc(OC(F)F)nc2)n1` [compound 480, N-[6-(difluoromethoxy)pyridin-3-yl]-6-(6-fluoro-2-methylimidazo[1,2-a]pyridin-3-yl)pyrazin-2-amine] had a melting point of 204 to 207 °C. The EC50 in series [1] (setting [2]) was in the range of 100 to 3000 nM.

In turn, `Cc1cnc(Nc2cccc(-c3c(C(F)(F)F)nc4ccccn34)n2)s1` [compound 147, N-(5-methyl-1,3-thiazol-2-yl)-6-[2-(trifluoromethyl)imidazo[1,2-a]pyridin-3-yl]pyridin-2-amine] yielded a melting point of 270 to 271 °C. Further, the EC50 in series [1] (setting [2]) lay in the range of 100 to 3000 nM.

In turn, `Cc1nn(C)c(C)c1-c1cc(C#N)cc(Nc2ccc(OC(F)(F)F)cc2)n1` [compound 265, 2-{[4-(trifluoromethoxy)phenyl]amino}-6-(1,3,5-trimethyl-1H-pyrazol-4-yl)pyridine-4-carbonitrile] showed a melting point of 135 to 136 °C. The concentration giving a half-maximal response (EC50) in series [1] (setting [2]) is 10 to 100 nM.

`Cc1nn(Cc2ccccn2)c(C)c1-c1cncc(Nc2ccc(OC(F)F)cc2)n1` [compound 401, N-[4-(difluoromethoxy)phenyl]-6-[3,5-dimethyl-1-(pyridin-2-ylmethyl)-1H-pyrazol-4-yl]pyrazin-2-amine] showed a melting point of 47 to 48 °C. The EC50 in series [1] (setting [2]) is 100 to 3000 nM.

In turn, `CCc1nc2ccc(F)cc2n1-c1cncc(Nc2ccc(Cl)cc2)n1` [compound 623, N-(4-chlorophenyl)-6-(2-ethyl-6-fluoro-1H-benzimidazol-1-yl)pyrazin-2-amine] yielded a melting point of 252 to 255 °C. Besides, in series [1] (setting [2]), the concentration giving a half-maximal response (EC50) is 1 to 10 nM.

Molecule `CCn1nc(C(F)(F)F)c(-c2cncc(Nc3ccc(C(F)(F)F)cc3)n2)c1C` [compound 329, 6-[1-ethyl-5-methyl-3-(trifluoromethyl)-1H-pyrazol-4-yl]-N-[4-(trifluoromethyl)phenyl]pyrazin-2-amine] registered a melting point of 150 to 151 °C. Further, the EC50 in series [1] (setting [2]) lay within 10 to 100 nM.

The molecule `FC1(F)Oc2ccc(Nc3cncc(-c4cccc5nc(C6CCC6)cn45)n3)cc2O1` [compound 117, 6-(2-cyclobutylimidazo[1,2-a]pyridin-5-yl)-N-(2,2-difluoro-1,3-benzodioxol-5-yl)pyrazin-2-amine] returned a melting point of 302 to 305 °C. The EC50 in series [1] (setting [2]) lay in the range of 100 to 3000 nM.

`Fc1ccc2nc(C3CC3)n(-c3cncc(Nc4ccc(C(F)(F)F)cc4)n3)c2c1` [compound 362, 6-(2-cyclopropyl-6-fluoro-1H-benzimidazol-1-yl)-N-[4-(trifluoromethyl)phenyl]pyrazin-2-amine]: the melting point fell in the range of 263 to 265 °C. The EC50 in series [1] (setting [2]) fell in the range of 1 to 10 nM.

`N#Cc1cc(Nc2ccc(OC(F)F)cc2)nc(-c2c(C(F)F)nc3ccc(F)cn23)c1` [compound 467, 2-{[4-(difluoromethoxy)phenyl]amino}-6-[2-(difluoromethyl)-6-fluoroimidazo[1,2-a]pyridin-3-yl]pyridine-4-carbonitrile]: the melting point fell in the range of 215 to 217 °C. The EC50 in series [1] (setting [2]) lay within 1 to 10 nM.

As for `Fc1cc(F)c2nc(C3CC3)n(-c3cncc(Nc4ccc(OC(F)F)cc4)n3)c2c1` [compound 462, 6-(2-cyclopropyl-4,6-difluoro-1H-benzimidazol-1-yl)-N-[4-(difluoromethoxy)phenyl]pyrazin-2-amine], the melting point was 202 to 203 °C. In series [1] (setting [2]), the EC50 is 10 to 100 nM.

Regarding `Cc1cc(Nc2cc(C#N)cc(-c3c(C)nc4ccc(F)cn34)n2)cnc1OC(F)F` [compound 470, 2-{[6-(difluoromethoxy)-5-methylpyridin-3-yl]amino}-6-(6-fluoro-2-methylimidazo[1,2-a]pyridin-3-yl)pyridine-4-carbonitrile], the melting point lay in the range of 219 to 222 °C. In addition, the EC50 in series [1] (setting [2]) was 100 to 3000 nM.

With `Cc1nn(Cc2cccnc2)c(C)c1-c1cncc(Nc2ccc(C(F)(F)F)cc2)n1` [compound 402, 6-[3,5-dimethyl-1-(pyridin-3-ylmethyl)-1H-pyrazol-4-yl]-N-[4-(trifluoromethyl)phenyl]pyrazin-2-amine], the melting point is 47 to 48 °C. Also, the EC50 in series [1] (setting [2]) was in the range of 10 to 100 nM.

On to `CCc1nc(C)cn1-c1cncc(Nc2ccc(OC(F)F)cc2)n1` [compound 180, N-[4-(difluoromethoxy)phenyl]-6-(2-ethyl-4-methyl-1H-imidazol-1-yl)pyrazin-2-amine], for which the melting point was 168 to 169 °C. The EC50 in series [1] (setting [2]) lay in the range of 100 to 3000 nM.

`Cc1nc2ccc(F)cn2c1-c1cncc(Nc2cccc(C(F)(F)F)c2)n1` [compound 594, 6-(6-fluoro-2-methylimidazo[1,2-a]pyridin-3-yl)-N-[3-(trifluoromethyl)phenyl]pyrazin-2-amine] returned a melting point of 188 to 190 °C. Besides, in series [1] (setting [2]), the EC50 was in the range of 100 to 3000 nM.

The molecule `Cc1nc2ccc(F)cn2c1-c1cc(C#N)cc(Nc2ccc(OC(F)F)c(F)c2)n1` [compound 311, 2-{[4-(difluoromethoxy)-3-fluorophenyl]amino}-6-(6-fluoro-2-methylimidazo[1,2-a]pyridin-3-yl)pyridine-4-carbonitrile] showed a melting point of 231 to 233 °C. For the same molecule, the half-maximal effective concentration (EC50) in series [1] (setting [2]) is 1 to 10 nM.

Turning to `Cc1nc2ccc(F)cc2n1-c1cncc(Nc2ccc(C#N)cc2)n1` [compound 555, 4-{[6-(6-fluoro-2-methyl-1H-benzimidazol-1-yl)pyrazin-2-yl]amino}benzonitrile], the melting point lay within 300 to 303 °C. In addition, the EC50 in series [1] (setting [2]) was in the range of 100 to 3000 nM.
